Legend:
NCI-N87 = assay: Therapeutic index: MTD in rat / MED in mouse efficacy model; assay type: in vivo; details: ADC of the drug linker
Description: The therapeutic index of each ADC/drug linker was calculated using the following equation: TI=MTD in rat (mg/kg)/MED in mouse efficacy model (mg/kg)

[1] = in vitro cytotoxicity, picomolar region; cited from earlier work

**Q.** Which “NCI-N87 MED” value (NCI-N87) does the source give for `COc1cc2c(cc1OCc1cccc(COc3cc4c(cc3OC)C(=O)N3CCC[C@H]3[C@H](O)N4C(=O)OCc3ccc(NC(=O)[C@H](C)NC(=O)[C@@H](NC(=O)CCOCCOCCOCCOCCOCCOCCOCCOCCNC(=O)CCN4C(=O)C=CC4=O)C(C)C)cc3)c1)N=C[C@@H]1CCCN1C2=O` [Compound 3, 4-((2S,5S)-37-(2,5-dioxo-2,5-dihydro-1H-pyrrol-1-yl)-5-isopropyl-2-methyl-4,7,35-trioxo-10,13,16,19,22,25,28,31-octaoxa-3,6,34-triazaheptatriacontanamido)benzyl (11S,11aS)-11-hydroxy-7-methoxy-8-((3-((((S)-7-methoxy-5-oxo-2,3,5,11a-tetrahydro-1H-benzo[e]pyrrolo[1,2-a][1,4]diazepin-8-yl)oxy)methyl)benzyl)oxy)-5-oxo-2,3,11,11a-tetrahydro-1H-benzo[e]pyrrolo[1,2-a][1,4]diazepine-10(5H)-carboxylate] here?
**A.** 1 mg/kg

**Q.** For `COc1cc2c(cc1OCCCOc1cc3c(cc1OC)C(=O)N1CCC[C@H]1[C@H](O)N3C(=O)OCc1ccc(NC(=O)[C@H](C)NC(=O)[C@@H](NC(=O)CCOCCOCCOCCOCCOCCOCCOCCOCCNC(=O)CCN3C(=O)C=CC3=O)C(C)C)cc1)N=C[C@@H]1CCCN1C2=O` [Compound 2, 4-((2S,5S)-37-(2,5-dioxo-2,5-dihydro-1H-pyrrol-1-yl)-5-isopropyl-2-methyl-4,7,35-trioxo-10,13,16,19,22,25,28,31-octaoxa-3,6,34-triazaheptatriacontanamido)benzyl(11S,11aS)-11-hydroxy-7-methoxy-8-(3-(((S)-7-methoxy-5-oxo-2,3,5,11a-tetrahydro-1H-pyrrolo[2,1-c][1,4]benzodiazepin-8-yl)oxy)propoxy)-5-oxo-2,3,11,11a-tetrahydro-1H-pyrrolo[2,1-c][1,4]benzodiazepine-10(5H)-carboxylate], which “NCI-N87 MED” value (NCI-N87) is on record?
**A.** 2 mg/kg

**Q.** For `C=C1C[C@H]2C=Nc3cc(OCCCOc4cc5c(cc4OC)C(=O)N4CC(=C)C[C@H]4C=N5)c(OC)cc3C(=O)N2C1` [SG2000], which “cytotoxic potency relative to DSB-120” value [1] is on record?
**A.** ~9000 fold

**Q.** For `COc1cc2c(cc1OCCCOc1cc3c(cc1OC)C(=O)N1CCC[C@H]1[C@H](O)N3C(=O)OCc1ccc(NC(=O)[C@H](C)NC(=O)[C@@H](NC(=O)CCOCCOCCOCCOCCOCCOCCOCCOCCNC(=O)CCN3C(=O)C=CC3=O)C(C)C)cc1)N=C[C@@H]1CCCN1C2=O` [Compound 1, 4-((2S,5S)-37-(2,5-dioxo-2,5-dihydro-1H-pyrrol-1-yl)-5-isopropyl-2-methyl-4,7,35-trioxo-10,13,16,19,22,25,28,31-octaoxa-3,6,34-triazaheptatriacontanamido)benzyl(11S,11aS)-11-hydroxy-7-methoxy-8-(3-(((S)-7-methoxy-5-oxo-2,3,5,11a-tetrahydro-1H-pyrrolo[2,1-c][1,4]benzodiazepin-8-yl)oxy)propoxy)-5-oxo-2,3,11,11a-tetrahydro-1H-pyrrolo[2,1-c][1,4]benzodiazepine-10(5H)-carboxylate], which “NCI-N87 MED” value (NCI-N87) is on record?
**A.** 6 mg/kg

Source: US11370801B2, “Pyrrolobenzodiazepine conjugates” (priority 2017, dated 2022)
